ChEMBL document CHEMBL5226289, “Discovery of natural anti-inflammatory alkaloids: Potential leads for the drug discovery for the treatment of inflammation” (Eur J Med Chem, 2021)
In brackets after ≈: the same amount, converted by molar mass.

Columns and labels:
Rattus norvegicus [1] = experiment: Antiinflammatory activity in Wistar albino rat assessed as inhibition of carrageenan-induced paw edema at 20 mg/kg, po preadministered for 1 hrs followed by carrageenan administration and measured upto 10 hrs by Plethysmometer; format: functional; conditions: time <= 11 hrs
[2] = Inhibition of TNF-alpha production in LPS-induced human U-937 cells preincubated with compound for 30 mins followed by LPS induction and measured after 4 hrs; format: functional, cell-based
HT-1080 [3] = experiment: Antiinflammatory activity in human HT-1080 cells assessed as inhibition of TNF-alpha production; format: functional
HT-1080 [4] = experiment: Antiinflammatory activity in human HT-1080 cells assessed as inhibition of IL-6 production; format: functional
Mus musculus [5] = experiment: Antiinflammatory activity in croton oil-induced Swiss mouse model of ear edema assessed as reduction in MPO activity administered via surface of left ear measured after 6 hrs relative to control; format: functional; parameters: scale not given: the % may be the effect or the level left; conditions: route au
Mus musculus [6] = experiment: Antiinflammatory activity in Swiss mouse assessed as reduction in croton oil-induced ear edema administered via surface of left ear measured after 6 hrs relative to control; format: functional; parameters: scale not given: the % may be the effect or the level left; conditions: route au
RAW264.7 = experiment: Inhibition of NO production in LPS-stimulated mouse RAW264.7 cells preincubated with compound for 4 hrs followed by LPS stimulation and measured after 24 hrs by Griess reagent-based assay; format: functional, cell-based
Rattus norvegicus [7] = experiment: Antiinflammatory activity in Wistar albino rat assessed as inhibition of CFA-induced paw edema at 10 mg/kg, po preadministered for 24 hrs followed by CFA administration and measured after 16 days; format: functional; conditions: 408 h, time 17 day
[8] = Inhibition of goat 5-LOX by spectrophotometric analysis; parameters: species or system Capra hircus
[9] = biological target: T1, Prostaglandin G/H synthase 2 (Homo sapiens, UniProt P35354); experiment: Inhibition of human recombinant COX-2 expressed in baculovirus infected Sf21 cells using arachidonic acid as substrate by spectrophotometric analysis
T1 sequence (P35354 whole entry): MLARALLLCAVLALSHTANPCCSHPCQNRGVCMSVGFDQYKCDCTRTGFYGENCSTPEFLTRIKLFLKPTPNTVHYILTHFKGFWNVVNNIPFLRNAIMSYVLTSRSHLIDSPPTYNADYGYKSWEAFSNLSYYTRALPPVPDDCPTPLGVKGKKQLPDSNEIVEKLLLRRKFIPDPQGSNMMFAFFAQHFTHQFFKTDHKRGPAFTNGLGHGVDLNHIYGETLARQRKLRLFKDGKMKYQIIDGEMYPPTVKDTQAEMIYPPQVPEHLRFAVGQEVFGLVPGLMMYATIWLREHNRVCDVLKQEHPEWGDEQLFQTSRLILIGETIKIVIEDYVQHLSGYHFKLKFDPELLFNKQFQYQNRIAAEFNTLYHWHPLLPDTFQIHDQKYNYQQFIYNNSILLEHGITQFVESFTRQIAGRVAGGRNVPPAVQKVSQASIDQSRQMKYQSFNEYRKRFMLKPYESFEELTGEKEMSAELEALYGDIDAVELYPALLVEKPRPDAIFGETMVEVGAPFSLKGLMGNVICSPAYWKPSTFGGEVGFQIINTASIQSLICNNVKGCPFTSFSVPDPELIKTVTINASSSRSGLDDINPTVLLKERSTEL

THP-1 [10] = experiment: Antiinflammatory activity in human THP-1 cells assessed as inhibition of IL-6 production; format: functional
THP-1 [11] = experiment: Antiinflammatory activity in human THP-1 cells assessed as inhibition of TNF-alpha production; format: functional

In the case of `OC1CCN2Cc3ccccc3N=C12` (configuration not stated), the inhibition in vivo at 20 mg/kg (Rattus norvegicus [1]) is reported as 59.5%.
For `CCCCCCCCCC(=O)C/C(=C\c1cc(CCC)ncc1C(=O)OC)C(C)=O`, the IC50 [2] was 1.52 µM.
For `Cc1cc(=O)c2c(O)c([C@H]3CCN(C)C[C@H]3O)c(O)cc2o1`, the “inhibition (INH)” value (HT-1080 [3]) was 47% and the “inhibition (INH)” value (HT-1080 [4]) was 83%.
`CN1C[C@H](O)C[C@H]1C(=O)O` gave an Activity (Mus musculus [5]) of 59.7% and an Activity (Mus musculus [6]) of 26.8%.
Work on `COc1cc(/C=C/CO)ccc1O[C@H]1CCCNC1=O` yielded an IC50 (RAW264.7) of 18.1 µM.
`O=c1c2ccccc2nc2n1CCC2O` (configuration not stated) showed an inhibition in vivo at 10 mg/kg (Rattus norvegicus [7]) of 63.9%.
Compound `CC[C@H](CCCC[C@@H]1/C=C\CN/C=C\C1)C[C@@H]1CCC(=O)ON1` has an IC50 [8] of 900 µg/mL (≈ 2810 µM) and an IC50 [9] of 2500 µM.
For `CC(=O)O[C@H]1CN(C)CC[C@H]1c1c(O)cc(O)c2c(=O)cc(C)oc12`, the “inhibition (INH)” value (THP-1 [10]) was 20.5% and the “inhibition (INH)” value (THP-1 [11]) was 81.1%.
